Measurements taken from ChEMBL document CHEMBL6153154, “Novel Carbocyclic Phenylpyrrolidinone Urea Compounds as FPR2 Agonists for Treating Atherosclerosis and Heart Failure” (ACS Med Chem Lett, 2025).

molecular target: T1, N-formyl peptide receptor 2 (Homo sapiens, UniProt P25090); experiment: Agonist activity at human FPR2 expressed in CHO cells assessed as forskolin-induced cAMP level incubated for 30 mins in presence of IBMX by HTRF HiRange cAMP assay; type: functional, cell-based
T1 sequence (P25090 whole entry): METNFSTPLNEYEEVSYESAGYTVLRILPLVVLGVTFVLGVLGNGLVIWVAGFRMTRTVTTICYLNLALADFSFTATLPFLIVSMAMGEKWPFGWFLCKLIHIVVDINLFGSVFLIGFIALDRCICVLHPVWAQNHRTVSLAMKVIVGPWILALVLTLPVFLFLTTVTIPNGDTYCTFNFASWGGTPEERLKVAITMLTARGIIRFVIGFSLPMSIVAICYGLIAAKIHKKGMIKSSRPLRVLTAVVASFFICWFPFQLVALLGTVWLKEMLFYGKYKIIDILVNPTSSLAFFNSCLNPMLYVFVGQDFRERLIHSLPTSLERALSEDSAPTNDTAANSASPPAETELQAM

EC50 [nM]	SMILES
0.41	CC(=O)NCC1(c2ccc(N3CC[C@@H](NC(=O)Nc4ccc(Cl)cc4F)C3=O)c(F)c2F)CC1
0.1	CC(=O)N(C)CC1(c2ccc(N3CC[C@@H](NC(=O)Nc4ccc(C(F)(F)F)cc4F)C3=O)c(F)c2F)CC1
0.23	O=C(Nc1ccc(C(F)(F)F)cc1F)N[C@@H]1CCN(c2ccc(C3(CN4CCCC4=O)CC3)c(F)c2F)C1=O
0.49	CC(C)S(=O)(=O)CC1(c2ccc(N3CC[C@@H](NC(=O)Nc4ccc(Cl)cc4F)C3=O)c(F)c2F)CC1
0.48	CP(C)(=O)CC1(c2ccc(N3CC[C@@H](NC(=O)Nc4ccc(C(F)(F)F)cc4F)C3=O)c(F)c2F)CCCC1
0.32	O=C(Nc1ccc(Cl)cc1F)N[C@@H]1CCN(c2ccc(C3(CN4CCCC4=O)CC3)c(F)c2F)C1=O
